How the values were obtained:
CYP11A = molecular target: T1, CYP11A (Homo sapiens, UniProt P05108); assay: Conversion reaction of substrates by CYP11A-expressing Escherichia coli; assay type: cell-based; conditions: for Conversion rate: same reaction as Example 6 (28° C., 5 hours)
T1 construct: A 1.45-kb CYP11A1 gene fragment amplified as a result of the above-described reaction; expressed in transfected cells; host or cells: Escherichia coli BL21(DE3), plasmid pCYP11A-ARX (strain BL21CYP11)
T1 sequence (P05108 40-521): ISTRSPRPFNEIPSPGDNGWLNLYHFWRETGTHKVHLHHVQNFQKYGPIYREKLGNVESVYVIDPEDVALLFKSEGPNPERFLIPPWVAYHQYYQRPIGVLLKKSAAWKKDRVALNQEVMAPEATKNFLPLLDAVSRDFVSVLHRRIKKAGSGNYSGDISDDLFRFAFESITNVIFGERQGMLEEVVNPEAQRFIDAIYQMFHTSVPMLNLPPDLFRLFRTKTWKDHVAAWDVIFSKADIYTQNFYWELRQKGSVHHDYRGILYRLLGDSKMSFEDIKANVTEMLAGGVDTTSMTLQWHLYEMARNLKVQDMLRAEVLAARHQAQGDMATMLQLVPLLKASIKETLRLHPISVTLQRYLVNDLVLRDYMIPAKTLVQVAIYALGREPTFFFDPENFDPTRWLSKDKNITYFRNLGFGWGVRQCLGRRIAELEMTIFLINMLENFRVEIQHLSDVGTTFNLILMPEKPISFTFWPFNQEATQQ
Method: (§1) The Escherichia coli expression strain BP215 was inoculated into 2 ml of an M9 mix medium (Na2HPO4: 0.68%, KH2PO4: 0.3%, NaCl: 0.05%, NH4C;: 0.01%, Casamino acid: 1%, D-Glucose: 0.4%, CaCl2: 0.1 mM, MgCl2: 1 mM, Thiamine: 0.002%, FeSO4: 0.1 mM, Carbenicillin: 0.005%), and it was then subjected to shaking culture at 30° C. for 17 hours, so as to obtain pre-culture solution. 0.25 ml of this pre-culture solution was inoculated into 25 ml of the main culture medium (Na2HPO4: 0.68%, KH2PO4: 0.3%, NaCl: 0.05%, NH4Cl: 0.01%, Casamino acid: 1%, CaCl2: 0.1 mM, MgCl2: 1 mM, Thiamine: 0.002%, FeSO4: 0.1 mM, Carbenicillin: 0.005%, Overnight Express™ solution: 7%, 5-Aminolevlic acid: 0.008%) using Overnight Express™ Autoinduction System (Novagen Cat. No. 71300-4), and it was then subjected to shaking culture at 25° C. for 24 hours. 5 ml of the obtained main culture solution was centrifuged (3500 rpm, 10 minutes) to obtain cell mass, and 1 ml of CV2 buffer (50 mM (pH) potassium phosphate buffer containing glycerol: 2%, carbenicillin: 0.005%, and isopropyl β-D-1-thiogalactopyranoside: 0.1 mM) was added to the obtained cell mass. Thereafter, 0.01 ml of the methanol solution of 1% 4-cholesten-3-one and 0.02 ml of an aqueous solution of 25% methyl-β-cyclodextrin were added to the mixed solution, and the obtained mixture was then shaken at 28° C. for 5 hours for the reaction. After completion of the reaction, 4 ml of methanol was added to the reaction solution, and they were then fully mixed. The obtained mixture was centrifuged, and the upper layer was then analyzed by HPLC.
A commercially available human testis cDNA (Origene Technologies, Inc.) was used as a template, and a CYP11A1 gene was amplified by PCR using a primer CYP11A-1F (SEQ ID NO: 19) and a primer CYP11A-2R (SEQ ID NO: 20), and also using KOD plus polymerase (TOYOBO Co., Ltd.). The temperature conditions applied during the PCR were 94° C./3 min, 30 cycles of (94° C./30 sec, 55° C./60 sec, and 72° C./90sec), and 72° C./5 min.
A 1.45-kb CYP11A1 gene fragment amplified as a result of the above-described reaction was purified using QIAquick PCR purification Kit (manufactured by QIAGEN), and it was then digested with Nde I and Spe I. Thereafter, the digest was ligated to Escherichia coli expression vector pT7NS-camAB, using T4 DNA ligase, and Escherichia coli DH5α was then transformed with the obtained expression vector, so as to construct a plasmid pCYP11A-camAB. Subsequently, using T4 DNA ligase, the previously prepared bovine-derived adrenodoxin reductase protein-adrenodoxin gene (adr-adx) fragment was inserted into and ligated to each of the Spe I and Bam HI sites of the above-described plasmid, and Escherichia coli DH5a was then transformed with the obtained plasmid, so as to construct plasmid pCYP11A-ARX. Thereafter, Escherichia coli BL21(DE3) was transformed with the thus constructed plasmid, and the obtained cell strain was named as BL21CYP11. The used adx-adr fragment was amplified by PCR with a plasmid pKARX (Sawada et. al. Eur. J. Biochem. 265, 950-956,1999) as a template, using primer bAdxR-1F (SEQ ID NO: 21) and primer bAdx-2R (SEQ ID NO: 22), and also using KOD plus polymerase (manufactured by TOYOBO Co., Ltd.). The temperature condition applied during the PCR were 94° C./3 min, 25 cycles of (94° C./30 sec, 60° C./30 sec, and 72° C./120sec), and 72° C./5 min.
Each substrate was subjected to the same reaction as that of Example 6, separately, and the reaction solution was then subjected to liquid separation using 1 ml of ethyl acetate. The reaction product and the substrate were extracted, and were then analyzed by HPLC.

CYPSS204A = assay: Conversion reaction of substrates by Escherichia coli expression strain BP215; assay type: cell-based, Sphingomonas subterranea NBRC 16086; conditions: strain BP215, 28° C., 5 hours; for Conversion rate: to progesterone, pregnenolone or 7-dehydropregnenolone
Method: The temperature conditions applied during the PCR were 95° C./5 min, 30 cycles of (98° C./30 sec, 60° C./30 sec, and 68° C./2 min), and 68° C./10 min.
Analysis conditions: Using Chromolith speed rod RP18e (50×4.6 mm) column, 50%→100% CH3CN gradient (0 to 3 min) and 100% CH3CN (3 to 8 min) were used as a mobile phase, and detection was carried out at a flow rate of 2 ml/min using CAD™ (Charged Aerosol Detection) and MS.

CYP204A1 = conditions: for Conversion rate: strain BP172, same reaction as Example 6 (28° C., 5 hours)
Method: Novosphingobium aromaticivorans (ATCC 700278) was inoculated into an L medium, and it was then cultured at 30° C. for 2 days. Thereafter, genomic DNA was extracted from the cell mass obtained in the same manner as that of Example 1. A fragment comprising a CYPSS204A1 gene and a ferredoxin gene located downstream thereof was amplified from the above-described genomic DNA by using a primer CYP-5F (SEQ ID NO: 9) and a primer CYP-6R (SEQ ID NO: 10) and also using La Taq polymerase (manufactured by Takara Bio INC.). The temperature conditions applied during this operation were 94° C./3 min, 30 cycles of (98° C./20 sec, 63° C./30 sec, and 68° C./2 min), and 72° C./5 min.
Escherichia coli BL21(DE3) was transformed with this plasmid, and the obtained cell strain was named as BP172.
as §1
As substrates, 4-cholesten-3-one, cholesterol, 7-dehydrocholesterol, ergosterol, 13-sitosterol, stigmasterol, campesterol, desmosterol, (20S)-20-hydroxycholest-4-en-3-one, (22R)-22-hydroxycholest-4-en-3-one, (20R,22R)-20,22-dihydroxycholest-4-en-3-one, and (20R,22S)-20,22-dihydroxycholest-4-en-3-one were used. Each substrate was subjected to the same reaction as that of Example 6, separately, and the generated product was then analyzed by HPLC.

[1] = strain BP172, same reaction as Example 6

With `CC[C@H](/C=C/[C@@H](C)[C@H]1CC[C@H]2[C@@H]3CC=C4C[C@@H](O)CC[C@]4(C)[C@H]3CC[C@]12C)C(C)C` [stigmasterol] the added substrate remained (CYP11A; same reaction as Example 6) was 100%, the Conversion rate (CYP11A) was 0% and the “accumulated amount of side-chain cleavage product” value (CYPSS204A) was 5.8 mg/L. It also gave an added substrate remained (CYPSS204A) of 70.8%, a Conversion rate (CYPSS204A) of 5.8% and a Conversion rate (CYP204A1) of 6.5%.

`CC(C)[C@H](C)CC[C@@H](C)[C@H]1CC[C@H]2[C@@H]3CC=C4C[C@@H](O)CC[C@]4(C)[C@H]3CC[C@]12C` [campesterol] was tested, and the added substrate remained (CYP11A; same reaction as Example 6) was 99.1%, the Conversion rate (CYP11A) was 1.0% and the Conversion rate (CYP11A; listed as Cam) was 1%. The “accumulated amount of side-chain cleavage product” value (CYPSS204A) was 27.9 mg/L, the added substrate remained (CYPSS204A) was 25.5% and the Conversion rate (CYPSS204A) was 27.9%. It also gave a Conversion rate (CYP204A1) of 31.3%.

With `CC(C)CC[C@@H](O)[C@@H](C)[C@H]1CC[C@H]2[C@@H]3CC=C4C[C@@H](O)CC[C@]4(C)[C@H]3CC[C@]12C` [(22R)-22-hydroxy-cholesterol] the “accumulated amount of pregnenolone” value (CYP11A; same reaction as Example 6) was 28.0 mg/L, the added substrate remained (CYP11A; same reaction as Example 6) was 78.6% and the Conversion rate (CYP11A) was 28.0%. The “accumulated amount of pregnenolone” value (CYPSS204A) was 80.0 mg/L, the added substrate remained (CYPSS204A) was 14.8% and the Conversion rate (CYPSS204A) was 80%. The “accumulated amount of pregnenolone” value (CYP204A1; [1]) was 69.5 mg/L, the added substrate remained (CYP204A1; [1]) was 42.8% and the Conversion rate (CYP204A1) was 69.5%.

For `CC(C)=CCC[C@@H](C)[C@H]1CC[C@H]2[C@@H]3CC=C4C[C@@H](O)CC[C@]4(C)[C@H]3CC[C@]12C` [desmosterol], the added substrate remained (CYP11A; same reaction as Example 6) was 99.6%, the Conversion rate (CYP11A) was 1.2% and the “accumulated amount of side-chain cleavage product” value (CYPSS204A) was 71.7 mg/L. The added substrate remained (CYPSS204A) was 21.3%, the Conversion rate (CYPSS204A) was 71.7% and the Conversion rate (CYP204A1) was 66.1%.

With `CC(C)CCC[C@@H](C)[C@H]1CC[C@H]2[C@@H]3CC=C4C[C@@H](O)CC[C@]4(C)[C@H]3CC[C@]12C` [cholesterol] the added substrate remained (CYP11A; same reaction as Example 6) was 99%, the Conversion rate (CYP11A) was 2.6% and the “accumulated amount of side-chain cleavage product” value (CYPSS204A) was 68.2 mg/L. For the same compound, the added substrate remained (CYPSS204A) was 3.7%, the Conversion rate (CYPSS204A) was 68.2% and the Conversion rate (CYP204A1) was 71.2%.

In the case of `CC(C)CC[C@@H](O)[C@](C)(O)[C@H]1CC[C@H]2[C@@H]3CCC4=CC(=O)CC[C@]4(C)[C@H]3CC[C@]12C` [(20R,22R)-20,22-dihydroxycholest-4-en-3-one], the added substrate remained (CYP11A; same reaction as Example 6) is reported as 95%, the Conversion rate (CYP11A) is reported as 4.3% and the added substrate remained (CYPSS204A) is reported as 0.6%. For the same compound, the Conversion rate (CYPSS204A) was 38.1% and the Conversion rate (CYP204A1) was 61.3%.

From patent US20120178124A1, “STEROL SIDE CHAIN-CLEAVING ENZYME PROTEIN AND USE THEREOF” (MITSUBISHI CHEMICAL CORPORATION, priority 2009, published 2012)
